PubChem BioAssay AID1963978 (Molecular Pharmacology Branch, DTP, NCI, 2024)

Test system: 616215-338-R-J1-PDC spheroids with HUVEC/MSC, viability
Experiment: Anticancer human tumor 616215-338-R-J1-PDC patient-derived colon adenocarcinoma cell line growth inhibition [PI3K]
Conditions: for IC50: curve of first compound; for viability, T/C: stronger effect = lower value
How it was run: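 Targeted small molecules plus PI3K inhibitors, half-log dose series from Cmax (default top 10 microM), were applied to heterotypic spheroids of cancer cells with HUVEC and MSCs. Viability indicated growth inhibition.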

[1] = second compound 0.0316 µM, first compound 0.000316 µM
[2] = second compound 0.0316 µM, first compound 0.001 µM
[3] = second compound 0.0316 µM, first compound 0.00316 µM
[4] = second compound 0.0316 µM, first compound 0.01 µM
[5] = second compound 0.0316 µM, first compound 0.0316 µM
[6] = second compound 0.0316 µM, first compound 0.1 µM
[7] = second compound 0.1 µM, first compound 0.000316 µM
[8] = second compound 0.1 µM, first compound 0.001 µM
[9] = second compound 0.1 µM, first compound 0.00316 µM
[10] = second compound 0.1 µM, first compound 0.01 µM
[11] = second compound 0.1 µM, first compound 0.0316 µM
[12] = second compound 0.1 µM, first compound 0.1 µM
[13] = second compound 0.316 µM, first compound 0.000316 µM
[14] = second compound 0.316 µM, first compound 0.001 µM
[15] = second compound 0.316 µM, first compound 0.00316 µM
[16] = second compound 0.316 µM, first compound 0.01 µM
[17] = second compound 0.316 µM, first compound 0.0316 µM
[18] = second compound 0.316 µM, first compound 0.1 µM
[19] = second compound 1 µM, first compound 0.000316 µM
[20] = second compound 1 µM, first compound 0.001 µM
[21] = second compound 1 µM, first compound 0.00316 µM
[22] = second compound 1 µM, first compound 0.01 µM
[23] = second compound 1 µM, first compound 0.0316 µM
[24] = second compound 1 µM, first compound 0.1 µM
[25] = second compound 3.16 µM, first compound 0.000316 µM
[26] = second compound 3.16 µM, first compound 0.001 µM
[27] = second compound 3.16 µM, first compound 0.00316 µM
[28] = second compound 3.16 µM, first compound 0.01 µM
[29] = second compound 3.16 µM, first compound 0.0316 µM
[30] = second compound 3.16 µM, first compound 0.1 µM
[31] = second compound 10 µM, first compound 0.000316 µM
[32] = second compound 10 µM, first compound 0.001 µM
[33] = second compound 10 µM, first compound 0.00316 µM
[34] = second compound 10 µM, first compound 0.01 µM
[35] = second compound 10 µM, first compound 0.0316 µM
[36] = second compound 10 µM, first compound 0.1 µM
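Note: spheroids exposed to agents for seven days before the viability read.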

`CC(=O)c1c(C)c2cnc(Nc3ccc(N4CCNCC4)cn3)nc2n(C2CCCC2)c1=O` + CC(Nc1ncnc2nc[nH]c12)c1cc2cccc(Cl)c2c(=O)n1-c1ccccc1 showed an IC50 (second compound 0.0316 µM) of over 0.1 µM, an IC50 (second compound 0.1 µM) of over 0.1 µM and an IC50 (second compound 0.316 µM) of over 0.1 µM. The IC50 (second compound 1 µM) was over 0.1 µM, the IC50 (second compound 3.16 µM) was over 0.1 µM and the IC50 (second compound 10 µM) was over 0.1 µM. It also gave a viability, T/C [1] of 106%, a viability, T/C [2] of 104% and a viability, T/C [3] of 93.2%. It also gave a viability, T/C [4] of 93.3%, a viability, T/C [5] of 92.5% and a viability, T/C [6] of 102%. For the same compound, the viability, T/C [7] was 98.7%, the viability, T/C [8] was 105% and the viability, T/C [9] was 99.6%. It also gave a viability, T/C [10] of 106%, a viability, T/C [11] of 104% and a viability, T/C [12] of 118%. For the same compound, the viability, T/C [13] was 110%, the viability, T/C [14] was 95.2% and the viability, T/C [15] was 98.4%. The viability, T/C [16] was 92.3%, the viability, T/C [17] was 106% and the viability, T/C [18] was 114%. It also gave a viability, T/C [19] of 98.2%, a viability, T/C [20] of 104% and a viability, T/C [21] of 99.5%. It also gave a viability, T/C [22] of 107%, a viability, T/C [23] of 113% and a viability, T/C [24] of 110%. For the same compound, the viability, T/C [25] was 115%, the viability, T/C [26] was 88.1% and the viability, T/C [27] was 99.2%. The viability, T/C [28] was 112%, the viability, T/C [29] was 101% and the viability, T/C [30] was 103%. It also gave a viability, T/C [31] of 97.8%, a viability, T/C [32] of 94% and a viability, T/C [33] of 122%. It also gave a viability, T/C [34] of 118%, a viability, T/C [35] of 104% and a viability, T/C [36] of 90.9%.
With `CC(C)n1nc(-c2ccc3oc(N)nc3c2)c2c(N)ncnc21` + CC(Nc1ncnc2nc[nH]c12)c1cc2cccc(Cl)c2c(=O)n1-c1ccccc1 the IC50 (second compound 0.0316 µM) was over 0.1 µM, the IC50 (second compound 0.1 µM) was over 0.1 µM and the IC50 (second compound 0.316 µM) was over 0.1 µM. It also gave an IC50 (second compound 1 µM) of over 0.1 µM, an IC50 (second compound 3.16 µM) of over 0.1 µM and an IC50 (second compound 10 µM) of over 0.1 µM. It also gave a viability, T/C [1] of 102%, a viability, T/C [2] of 103% and a viability, T/C [3] of 102%. It also gave a viability, T/C [4] of 124%, a viability, T/C [5] of 112% and a viability, T/C [6] of 86.9%. For the same compound, the viability, T/C [7] was 103%, the viability, T/C [8] was 121% and the viability, T/C [9] was 99.8%. The viability, T/C [10] was 109%, the viability, T/C [11] was 120% and the viability, T/C [12] was 88.6%. It also gave a viability, T/C [13] of 95.5%, a viability, T/C [14] of 92.8% and a viability, T/C [15] of 118%. The viability, T/C [16] was 110%, the viability, T/C [17] was 101% and the viability, T/C [18] was 77.4%. It also gave a viability, T/C [19] of 94.8%, a viability, T/C [20] of 106% and a viability, T/C [21] of 99.2%. The viability, T/C [22] was 118%, the viability, T/C [23] was 122% and the viability, T/C [24] was 80.5%. The viability, T/C [25] was 123%, the viability, T/C [26] was 103% and the viability, T/C [27] was 111%. For the same compound, the viability, T/C [28] was 115%, the viability, T/C [29] was 128% and the viability, T/C [30] was 68.5%. It also gave a viability, T/C [31] of 110%, a viability, T/C [32] of 110% and a viability, T/C [33] of 102%. It also gave a viability, T/C [34] of 113%, a viability, T/C [35] of 112% and a viability, T/C [36] of 66.8%.
Work on `CCCS(=O)(=O)Nc1ccc(F)c(C(=O)c2c[nH]c3ncc(-c4ccc(Cl)cc4)cc23)c1F` + CC(Nc1ncnc2nc[nH]c12)c1cc2cccc(Cl)c2c(=O)n1-c1ccccc1 yielded an IC50 (second compound 0.0316 µM) of 4.58 µM, an IC50 (second compound 0.1 µM) of 4.06 µM and an IC50 (second compound 0.316 µM) of 4.39 µM. For the same compound, the IC50 (second compound 1 µM) was 4.67 µM, the IC50 (second compound 3.16 µM) was 4.29 µM and the IC50 (second compound 10 µM) was 4.69 µM. The viability, T/C [5] was 102%, the viability, T/C [6] was 93.2% and the viability, T/C (second compound 0.0316 µM, first compound 0.316 µM) was 106%. It also gave a viability, T/C (second compound 0.0316 µM, first compound 1 µM) of 93.6%, a viability, T/C (second compound 0.0316 µM, first compound 3.16 µM) of 73.2% and a viability, T/C (second compound 0.0316 µM, first compound 10 µM) of 1.56%. The viability, T/C [11] was 110%, the viability, T/C [12] was 102% and the viability, T/C (second compound 0.1 µM, first compound 0.316 µM) was 106%. It also gave a viability, T/C (second compound 0.1 µM, first compound 1 µM) of 96.4%, a viability, T/C (second compound 0.1 µM, first compound 3.16 µM) of 63.4% and a viability, T/C (second compound 0.1 µM, first compound 10 µM) of 1.25%. For the same compound, the viability, T/C [17] was 105%, the viability, T/C [18] was 113% and the viability, T/C (second compound 0.316 µM, first compound 0.316 µM) was 97.7%. The viability, T/C (second compound 0.316 µM, first compound 1 µM) was 101%, the viability, T/C (second compound 0.316 µM, first compound 3.16 µM) was 68.9% and the viability, T/C (second compound 0.316 µM, first compound 10 µM) was 1.67%. It also gave a viability, T/C [23] of 107%, a viability, T/C [24] of 105% and a viability, T/C (second compound 1 µM, first compound 0.316 µM) of 93.8%. It also gave a viability, T/C (second compound 1 µM, first compound 1 µM) of 101%, a viability, T/C (second compound 1 µM, first compound 3.16 µM) of 74.3% and a viability, T/C (second compound 1 µM, first compound 10 µM) of 2.71%. The viability, T/C [29] was 100%, the viability, T/C [30] was 115% and the viability, T/C (second compound 3.16 µM, first compound 0.316 µM) was 102%. The viability, T/C (second compound 3.16 µM, first compound 1 µM) was 107%, the viability, T/C (second compound 3.16 µM, first compound 3.16 µM) was 67.4% and the viability, T/C (second compound 3.16 µM, first compound 10 µM) was 1.53%. It also gave a viability, T/C [35] of 115%, a viability, T/C [36] of 105% and a viability, T/C (second compound 10 µM, first compound 0.316 µM) of 113%. It also gave a viability, T/C (second compound 10 µM, first compound 1 µM) of 104%, a viability, T/C (second compound 10 µM, first compound 3.16 µM) of 74.7% and a viability, T/C (second compound 10 µM, first compound 10 µM) of 3%.
